One series concerns SARS-CoV-2. Particulars: Vero E6 cells; Wang et al. 2020; read-out: EC50 against SARS-CoV-2; cited from earlier work.
For series [1], the system named is ATCC 29213 (A), MRSA 434844 (B) and S. aureus Newman (C). Nature of the series: Spot test on LB agar, all three strains. Type of series: cell-based. The conditions noted are these: for effect on bacterial load, API in DMSO: repeat spot test, only highest concentration (niclosamide 100 µg/mL, oxyclozanide 40 µg/mL). Here is the method: Following incubation, the formed colonies were counted. […] Duplicates were performed.
As both positive controls were negative further the experiment was repeated using different concentrations in a spot test using the same methodology described above.
In this experiment the negative control was the bacterial suspension only.

Another series has as its target T1, TMEM16F (Homo sapiens, UniProt Q4KMQ2).
T1 sequence (Q4KMQ2 1-910): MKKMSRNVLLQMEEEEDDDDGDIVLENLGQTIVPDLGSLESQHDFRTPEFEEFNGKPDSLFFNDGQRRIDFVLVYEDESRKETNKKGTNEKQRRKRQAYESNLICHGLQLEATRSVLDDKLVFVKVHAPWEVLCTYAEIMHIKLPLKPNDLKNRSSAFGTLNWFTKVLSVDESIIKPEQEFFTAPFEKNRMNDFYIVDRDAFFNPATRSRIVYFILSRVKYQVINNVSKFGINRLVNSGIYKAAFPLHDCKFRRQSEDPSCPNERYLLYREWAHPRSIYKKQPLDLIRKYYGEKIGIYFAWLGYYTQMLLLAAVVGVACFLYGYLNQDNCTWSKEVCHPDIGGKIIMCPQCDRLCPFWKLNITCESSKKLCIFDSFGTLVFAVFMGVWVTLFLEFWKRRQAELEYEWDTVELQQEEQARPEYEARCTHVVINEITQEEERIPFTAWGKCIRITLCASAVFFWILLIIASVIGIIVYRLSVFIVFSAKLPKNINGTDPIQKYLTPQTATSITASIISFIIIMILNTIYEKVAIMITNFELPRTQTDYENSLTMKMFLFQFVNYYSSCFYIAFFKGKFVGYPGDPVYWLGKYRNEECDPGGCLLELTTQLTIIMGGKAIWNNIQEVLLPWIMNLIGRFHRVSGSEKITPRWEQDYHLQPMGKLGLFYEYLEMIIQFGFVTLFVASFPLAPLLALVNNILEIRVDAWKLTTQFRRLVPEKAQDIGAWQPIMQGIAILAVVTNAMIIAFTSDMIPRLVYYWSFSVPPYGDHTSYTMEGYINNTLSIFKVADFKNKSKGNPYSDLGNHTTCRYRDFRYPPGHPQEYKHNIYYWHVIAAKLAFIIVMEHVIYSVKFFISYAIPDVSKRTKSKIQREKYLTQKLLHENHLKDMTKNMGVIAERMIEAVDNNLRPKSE
Particulars: Cabrita et al. 2019; cited from earlier work.

For series [2] the following is noted: cited from earlier work.
Another series has as its system asthmatic mice. The conditions noted are these: dissolved in corn oil, I.P. injection; cited from earlier work.
The next series concerns SARS-CoV. Particulars: cited from earlier work.
The next series has as its target T2, TMEM16A (Homo sapiens, UniProt Q5XXA6).
T2 sequence (Q5XXA6 1-986): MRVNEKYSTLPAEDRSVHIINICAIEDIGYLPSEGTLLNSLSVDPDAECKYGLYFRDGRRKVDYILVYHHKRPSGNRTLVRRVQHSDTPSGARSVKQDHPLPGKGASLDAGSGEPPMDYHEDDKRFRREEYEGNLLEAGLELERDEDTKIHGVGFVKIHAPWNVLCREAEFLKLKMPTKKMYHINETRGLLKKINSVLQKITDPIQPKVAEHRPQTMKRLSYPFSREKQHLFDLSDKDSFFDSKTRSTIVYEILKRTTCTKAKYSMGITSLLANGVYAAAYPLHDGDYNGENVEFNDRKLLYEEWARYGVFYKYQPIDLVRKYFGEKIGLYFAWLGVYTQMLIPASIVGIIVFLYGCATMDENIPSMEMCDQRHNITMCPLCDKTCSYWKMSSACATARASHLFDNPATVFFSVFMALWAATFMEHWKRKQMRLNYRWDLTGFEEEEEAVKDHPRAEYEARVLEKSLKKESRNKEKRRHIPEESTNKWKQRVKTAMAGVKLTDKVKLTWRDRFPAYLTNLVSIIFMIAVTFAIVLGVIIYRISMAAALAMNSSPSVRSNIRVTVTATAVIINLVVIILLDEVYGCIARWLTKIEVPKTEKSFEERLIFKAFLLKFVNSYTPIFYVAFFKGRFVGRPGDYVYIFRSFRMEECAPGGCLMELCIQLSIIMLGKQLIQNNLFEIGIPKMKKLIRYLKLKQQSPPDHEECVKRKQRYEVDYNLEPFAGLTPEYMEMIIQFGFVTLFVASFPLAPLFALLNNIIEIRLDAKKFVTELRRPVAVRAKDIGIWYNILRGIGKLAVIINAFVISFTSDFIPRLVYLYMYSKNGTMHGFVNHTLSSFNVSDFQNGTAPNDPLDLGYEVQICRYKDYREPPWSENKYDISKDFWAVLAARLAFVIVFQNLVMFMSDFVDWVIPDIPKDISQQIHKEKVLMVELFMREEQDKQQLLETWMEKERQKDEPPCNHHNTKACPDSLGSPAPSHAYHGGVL
Particulars: Cabrita et al. 2019; cited from earlier work.

The conditions of series [3]: in vivo.
Series [4] deals with healthy volunteers. Nature of the series: Phase 1 trial of inhaled niclosamide, safety and PK. Particulars: after repeated inhalation doses; raw data.
Test in series [5]: as above
The conditions noted are these: human, blood, inhaled, 6 mL of 1% formulation.

The test system of series [6] is healthy volunteers. The conditions noted are these: human, in vivo.

Values joined by “and” are separate entries in the source; they are usually repeats but may differ in a detail not shown here. Identical values can stand only once.

For the compound `CCN(CC)CCCC(C)Nc1ccnc2cc(Cl)ccc12` (stereo not shown) [chloroquine], the EC50 (in general, the concentration needed to bring the measured effect to its halfway point) in the series with SARS-CoV-2 is 1130 nM.

With `O=C(Nc1cc(Cl)cc(Cl)c1O)c1c(O)c(Cl)cc(Cl)c1Cl` [oxyclozanide, Oxyclozanide], the “efficiency in reducing bacterial load of S. aureus” value in series [1] (comparison of tested formulations) is on record as “highest efficiency”. In addition, the “effect on bacterial load, API in DMSO” value in series [1] is “substantially decreased the bacterial load”.

Turning to `CC(=O)Oc1ccccc1C(=O)Nc1ncc([N+](=O)[O-])s1` [nitazoxanide], in the series on SARS-CoV-2, the EC50 was 2120 nM.

Consider `O=C(Nc1ccc([N+](=O)[O-])cc1Cl)c1cc(Cl)ccc1O` [niclosamide], for which the “inhibition of Cl- channel TMEM16F” value at TMEM16F is recorded as “potent inhibitor”. In [2] (after oral administration), the “administered dose detected in the urine (minimum level of absorption)” value is reported as 2-25%. Also, the “maximal serum concentration of niclosamide” value in [2] (human volunteers, single oral dose of 2,000 mg) is 0.25-6.0 µg/mL and 0.76 -18.3 µM. Besides, the “oral bioavailability (F)” value in series [2] (oral) is reported as 10%. For the same compound, the “effect on mucus and bronchoconstriction in asthmatic mice” value in the series on asthmatic mice was “reduced mucus production and secretion, as well as bronchoconstriction”. Moreover, the “effect on bacterial load, API in DMSO” value in [1] was “substantially decreased the bacterial load”. In addition, in the series with SARS-CoV, the “concentration suppressing cytopathic effect (CPE) of SARS-CoV (as low as)” value is listed as 1 µm and the “concentration that totally abolished viral antigen synthesis” value is 1.56 µm. Moreover, the EC50 with SARS-CoV (read-out: EC50 of SARS-CoV replication) was less than 100 nM. The “inhibition of Cl- channel TMEM16A” value on TMEM16A is given as “potent inhibitor”. The “efficacy margin, mean systemic exposure of human oral dose to IC90 against SARS-CoV-2” value in series [3] is reported as 8 fold.

Take `O=C(Nc1ccc([N+](=O)[O-])cc1Cl)c1cc(Cl)ccc1O` [niclosamide ethanolamine]: the CC50 with Caco-2 cells and in the series with VeroE6 cells was greater than 10000 nM throughout. In the series on healthy volunteers [4], the “peak concentration in blood (range)” value is 29 to 506 ng/mL. Further, the half-life (in general, the time needed for the level to fall by half in the phase considered) is 2.7 h in series [5] (repeated) and 2 h in series [5] (single dose). Further, the “AUC0-8, mean” value with healthy volunteers [6] is 509.0 ng·h/mL. In the series with healthy volunteers [6], the “maximum plasma concentration (Cmax), mean” value is reported as 238.9 ng/mL.

The values above are taken from patent publication US20230190685A1, “FORMULATION” (UNION Therapeutics A/S, priority 2020, published 2023).
